pKi: −log10 of the molar value. Read-outs that look alike come from different tables or passages of the source.
Legend:
Human α4β2 nAChR subtype = molecular target: T1, Human α4β2 nAChR subtype (Homo sapiens, UniProt P17787+P43681); test: [3H]nicotine radioligand binding, membranes from SH-EP1/human α4β2 clonal cells
T1 construct: expressed in transfected cells; host or cells: SH-EP1 clonal cells
Description: Preparation of membranes from SH-EP1/human α4β2 clonal cells:
Cell pellets from 40 150 mm culture dishes were pooled, and homogenized by Polytron (Kinematica GmbH, Switzerland) in 20 milliliters of ice-cold preparative buffer. The homogenate was centrifuged at 48,000 g for 20 minutes at 4° C. The resulting pellet was re-suspended in 20 mL of ice-cold preparative buffer and stored at ˜20° C.
(§1) On the day of the assay, the frozen membranes were thawed and spun at 48,000×g for 20 min. The supernatant was decanted and discarded. The pellet was resuspended in Dulbecco's phosphate buffered saline (PBS, Life Technologies) pH 7.4 and homogenized with the Polytron for 6 seconds. Protein concentrations were determined using a Pierce BCA Protein Assay Kit, with bovine serum albumin as the standard (Pierce Chemical Company, Rockford, Ill.).
(§2) Assay: Membrane preparations (approximately 50 μg for human and 200-300 μg protein for rat α4β2) were incubated in PBS (50 μL and 100 μL respectively) in the presence of competitor compound (0.01 nM to 100 μM) and 5 nM [^3H]nicotine for 2-3 hours on ice. Incubation was terminated by rapid filtration on a multi-manifold tissue harvester (Brandel, Gaithersburg, Md.) using GF/B filters presoaked in 0.33% polyethyleneimine (w/v) to reduce non-specific binding. Tissue was rinsed 3 times in PBS, pH 7.4. Scintillation fluid was added to filters containing the washed tissue and allowed to equilibrate. Filters were then counted to determine radioactivity bound to the membranes by liquid scintillation counting (2200CA Tri-Carb LSC, Packard Instruments, 50% efficiency or Wallac Trilux 1450 MicroBeta, 40% efficiency, Perkin Elmer).
(§3) Data were expressed as disintegrations per minute (DPMs). Within each assay, each point had 2-3 replicates. The replicates for each point were averaged and plotted against the log of the drug concentration. IC50, which is the concentration of the compound that produces 50% inhibition of binding, was determined by least squares non-linear regression. Ki values were calculated using the Cheng-Prussof equation (1973): […]
(§4) where N is the concentration of [^3H]nicotine and Kd is the affinity of nicotine (3 nM, determined in a separate experiment).

Rat α4β2 nAChR subtype = molecular target: T2, Rat α4β2 nAChR subtype (Rattus norvegicus, UniProt P09483+P12390); test: [3H]nicotine radioligand binding, membranes from rat cortex
T2 construct: from tissue; host or cells: rat cerebral cortex membranes (female Sprague-Dawley)
Description: Preparation of membranes from rat cortex: Rats (female, Sprague-Dawley), weighing 150-250 g, were maintained on a 12 h light/dark cycle and were allowed free access to water and food supplied by PMI Nutrition International, Inc. Animals were anesthetized with 70% CO2, and then decapitated. Brains were removed and placed on an ice-cold platform. The cerebral cortex was removed and placed in 20 volumes (weight:volume) of ice-cold preparative buffer (137 mM NaCl, 10.7 mM KCl, 5.8 mM KH2PO4, 8 mM Na2HPO4, 20 mM HEPES (free acid), 5 mM iodoacetamide, 1.6 mM EDTA, pH 7.4); PMSF, dissolved in methanol to a final concentration of 100 μM, was added and the suspension was homogenized by Polytron. The homogenate was centrifuged at 18,000×g for 20 min at 4° C. and the resulting pellet was re-suspended in 20 volumes of ice-cold water. After 60 min incubation on ice, a new pellet was collected by centrifugation at 18,000×g for 20 min at 4° C. The final pellet was re-suspended in 10 volumes of buffer and stored at ˜20° C.
as §1, §2, §3, §4

[1] = [3H]nicotine, "Failed HTS" = failed to bind sufficiently in high through-put screening to warrant Ki determination, read-out: Human α4β2 Ki
[2] = [3H]nicotine, "Failed HTS" = failed to bind sufficiently in high through-put screening to warrant Ki determination, read-out: Rat α4β2 Ki
[3] = [3H]nicotine, "Failed HTS" = failed to bind sufficiently in high through-put screening to warrant Ki determination

T1 sequence (P43681 29-627 limits assumed): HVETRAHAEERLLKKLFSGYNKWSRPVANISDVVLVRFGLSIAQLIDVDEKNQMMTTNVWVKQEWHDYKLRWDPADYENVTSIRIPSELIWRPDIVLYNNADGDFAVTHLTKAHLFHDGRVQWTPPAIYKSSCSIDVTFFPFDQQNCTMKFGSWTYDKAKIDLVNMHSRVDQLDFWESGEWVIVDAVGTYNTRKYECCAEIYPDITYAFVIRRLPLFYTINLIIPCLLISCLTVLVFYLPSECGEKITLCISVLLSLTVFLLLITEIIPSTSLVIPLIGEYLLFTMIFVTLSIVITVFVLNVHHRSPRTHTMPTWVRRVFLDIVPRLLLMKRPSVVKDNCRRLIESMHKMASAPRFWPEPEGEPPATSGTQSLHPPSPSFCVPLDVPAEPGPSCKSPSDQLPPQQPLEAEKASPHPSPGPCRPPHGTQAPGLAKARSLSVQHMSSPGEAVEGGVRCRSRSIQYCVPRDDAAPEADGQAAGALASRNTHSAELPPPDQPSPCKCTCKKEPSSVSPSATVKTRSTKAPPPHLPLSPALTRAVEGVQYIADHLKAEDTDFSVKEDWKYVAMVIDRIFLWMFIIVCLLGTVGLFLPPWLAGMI
T1 sequence (P17787 26-502): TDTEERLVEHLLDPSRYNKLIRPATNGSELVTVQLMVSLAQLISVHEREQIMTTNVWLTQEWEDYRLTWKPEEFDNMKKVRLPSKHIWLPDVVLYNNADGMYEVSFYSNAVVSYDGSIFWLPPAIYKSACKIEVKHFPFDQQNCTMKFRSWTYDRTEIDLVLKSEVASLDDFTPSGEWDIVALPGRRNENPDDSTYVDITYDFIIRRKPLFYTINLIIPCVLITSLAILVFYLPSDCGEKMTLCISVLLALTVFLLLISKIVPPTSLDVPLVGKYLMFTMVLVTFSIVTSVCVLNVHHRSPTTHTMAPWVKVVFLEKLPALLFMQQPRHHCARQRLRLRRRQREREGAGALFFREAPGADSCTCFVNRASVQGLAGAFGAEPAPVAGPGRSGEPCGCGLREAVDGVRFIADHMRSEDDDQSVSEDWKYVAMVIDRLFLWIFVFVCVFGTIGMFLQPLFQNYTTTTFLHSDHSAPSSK
T2 sequence (P09483 31-630): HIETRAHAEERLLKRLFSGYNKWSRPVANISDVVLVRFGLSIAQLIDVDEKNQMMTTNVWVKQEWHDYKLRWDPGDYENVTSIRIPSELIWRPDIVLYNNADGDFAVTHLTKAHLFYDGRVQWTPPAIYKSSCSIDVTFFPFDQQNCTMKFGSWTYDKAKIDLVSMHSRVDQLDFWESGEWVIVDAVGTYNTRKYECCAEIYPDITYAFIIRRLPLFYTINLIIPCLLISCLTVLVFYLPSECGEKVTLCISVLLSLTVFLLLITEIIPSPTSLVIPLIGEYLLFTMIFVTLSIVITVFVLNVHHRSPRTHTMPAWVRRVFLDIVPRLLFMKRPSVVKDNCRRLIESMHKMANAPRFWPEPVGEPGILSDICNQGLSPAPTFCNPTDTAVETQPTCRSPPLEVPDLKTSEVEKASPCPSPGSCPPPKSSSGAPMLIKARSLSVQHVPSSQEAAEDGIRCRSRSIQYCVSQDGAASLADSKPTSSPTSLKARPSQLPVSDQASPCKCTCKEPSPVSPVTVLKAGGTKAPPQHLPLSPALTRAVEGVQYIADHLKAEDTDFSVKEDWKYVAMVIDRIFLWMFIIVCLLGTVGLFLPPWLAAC
T2 sequence (P12390 25-500): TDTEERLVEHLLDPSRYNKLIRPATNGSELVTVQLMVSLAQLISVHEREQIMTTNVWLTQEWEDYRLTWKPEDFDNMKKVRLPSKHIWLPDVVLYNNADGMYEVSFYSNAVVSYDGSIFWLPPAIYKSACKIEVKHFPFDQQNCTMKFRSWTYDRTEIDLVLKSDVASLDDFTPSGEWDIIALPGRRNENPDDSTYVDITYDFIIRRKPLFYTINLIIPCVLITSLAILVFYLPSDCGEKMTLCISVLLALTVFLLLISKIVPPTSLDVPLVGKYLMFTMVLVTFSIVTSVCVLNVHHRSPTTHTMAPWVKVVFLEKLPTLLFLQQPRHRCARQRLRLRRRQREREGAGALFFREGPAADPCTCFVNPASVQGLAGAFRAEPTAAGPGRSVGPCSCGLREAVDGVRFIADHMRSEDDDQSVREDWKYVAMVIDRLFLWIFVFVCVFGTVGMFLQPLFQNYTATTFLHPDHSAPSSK

Row | Compound | pKi (Human α4β2 nAChR subtype; [1]) | Rat α4β2 Ki (nM) (Rat α4β2 nAChR subtype; [3]) | also measured
1 | O=c1cnc2cc3c(cc2[nH]1)CCNCC3 [G] | 7.20 |  | pKi (Rat α4β2 nAChR subtype; [2]): 6.92
2 | Clc1ccc2cc3c(cc2n1)CCNCC3 [O] |  |  | pKi (Human α4β2 nAChR subtype): 9.32; pKi (Rat α4β2 nAChR subtype): 8.51
3 | O=c1ccc2cc3c(cc2[nH]1)CCNCC3 [N] |  | Failed HTS | Human α4β2 Ki (nM) (Human α4β2 nAChR subtype; [3]): Failed HTS
4 | CNc1cnc2cc3c(cc2n1)CCNCC3 [K] |  | Failed HTS | Human α4β2 Ki (nM) (Human α4β2 nAChR subtype; [3]): Failed HTS
5 | COc1ccc2cc3c(cc2n1)CCNCC3 [P] | 5.92 | Failed HTS | 
6 | Cc1cnc2cc3c(cc2n1)CCNCC3 [E] | 7.43 |  | pKi (Rat α4β2 nAChR subtype; [2]): 7.20
7 | Clc1cnc2cc3c(cc2n1)CCNCC3 [J] |  |  | pKi (Human α4β2 nAChR subtype): 7.35; pKi (Rat α4β2 nAChR subtype): 7.92
8 | c1cncc(-c2cnc3cc4c(cc3n2)CCNCC4)c1 [I] |  | Failed HTS | pKi (Human α4β2 nAChR subtype): 5.13
9 | CCc1nc2cc3c(cc2nc1CC)CCNCC3 [D] | 6.34 | Failed HTS | 
10 | CN(C)c1cnc2cc3c(cc2n1)CCNCC3 [L] | 6.13 | Failed HTS | 
11 | COc1cnc2cc3c(cc2n1)CCNCC3 [H] | 7.60 |  | pKi (Rat α4β2 nAChR subtype; [2]): 7.11
12 | CCc1nc2cc3c(cc2nc1C)CCNCC3 [C] | 6.51 | Failed HTS | 
13 | Cc1nc2cc3c(cc2nc1C)CCNCC3 [B] |  |  | pKi (Human α4β2 nAChR subtype): 7.01; pKi (Rat α4β2 nAChR subtype): 6.23
14 | c1ccc(CNc2cnc3cc4c(cc3n2)CCNCC4)cc1 [M] | 6.28 | Failed HTS | 
15 | c1cnc2cc3c(cc2c1)CCNCC3 [F] | 9.03 |  | pKi (Rat α4β2 nAChR subtype; [2]): 8.52
16 | CN1CCc2cc3nccnc3cc2CC1 [R] |  | Failed HTS | pKi (Human α4β2 nAChR subtype): 6.68
17 | Cc1ccc2cc3c(cc2n1)CCNCC3 [Q] | 7.96 |  | pKi (Rat α4β2 nAChR subtype; [2]): 7.35
